The values below come from PMC11944389, “Electrochemical Analysis and Inhibition Assay of Immune-Modulating Enzyme, Indoleamine 2,3-Dioxygenase” (Pharmaceuticals, 2025).

The target of this assay is T1, human indoleamine 2,3-dioxygenase 1 (hIDO1) (Homo sapiens, UniProt P14902).
T1 construct: gene IDO1; full-length hIDO1
Briefly: electrochemical inhibition assay (voltammetry, purified hIDO1 immobilized on nanoporous gold electrode, with O2 and Trp). The format is biochemical.

T1 sequence (P14902 whole entry): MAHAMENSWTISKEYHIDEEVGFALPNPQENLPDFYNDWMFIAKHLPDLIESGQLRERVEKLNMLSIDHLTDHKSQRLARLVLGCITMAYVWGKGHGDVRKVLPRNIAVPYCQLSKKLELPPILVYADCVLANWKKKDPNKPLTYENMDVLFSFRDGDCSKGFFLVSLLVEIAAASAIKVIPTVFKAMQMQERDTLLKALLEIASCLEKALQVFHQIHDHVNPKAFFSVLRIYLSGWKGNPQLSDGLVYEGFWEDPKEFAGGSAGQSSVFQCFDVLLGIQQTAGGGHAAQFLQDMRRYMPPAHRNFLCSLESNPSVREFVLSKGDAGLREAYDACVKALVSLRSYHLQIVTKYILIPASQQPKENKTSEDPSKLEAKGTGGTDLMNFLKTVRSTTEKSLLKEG

As a reminder, the IC50 is the concentration that gives 50% inhibition. Low readings indicate inhibition by little substance, high ones a need for much substance. `CC(C)(C)c1nc(CN2CCN(CC(O)c3ccccc3)CC2)no1` (racemic) [MTS-7, 2-(4-{[5-(2-methyl-2-propanyl)-1,2,4-oxadiazol-3-yl]methyl}-1-piperazinyl)-1-phenylethanol] showed a half-maximal inhibitory concentration (IC50) of around 10 nM.
